Measured values taken from ChEMBL document CHEMBL1201862, “PubChem BioAssay data set” (2004).
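All cell lines were grown in 96-well plates and treated with compound for 48 hours. GI50 is the concentration that inhibits growth by half.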 Calls of active or inactive are those of the source. No stated cut-off is given here; in the data, active = GI50 up to about 1.1 µM and inactive = higher.

Assays:
Assay in all cases: NCI-60 cell line screen, 48 h
A549 = tested on: A549
DLD-1 = tested on: DLD-1
HT-29 = tested on: HT-29
IGROV-1 = tested on: IGROV-1
K562 = tested on: K562
KM12 = tested on: KM12
NCI-H460 = tested on: NCI-H460
OVCAR-3 = tested on: OVCAR-3
OVCAR-4 = tested on: OVCAR-4
RXF 393 = tested on: RXF 393
SF-295 = tested on: SF-295
SF-539 = tested on: SF-539
SNB-19 = tested on: SNB-19
SNB-75 = tested on: SNB-75
UACC-62 = tested on: UACC-62
UO-31 = tested on: UO-31
786-0 = tested on: 786-0
ACHN = tested on: ACHN
DU-145 = tested on: DU-145
MDA-N = tested on: MDA-N

Measured: GI50

Cc1c2cc[n+](C)cc2c(COC2OC(CO)C(O)C2O)c2c3ccccc3n(C)c12 (configuration not stated)
inactive: A549 74.3 µM | DLD-1 > 100 µM | HT-29 > 100 µM | IGROV-1 > 100 µM | K562 > 100 µM | KM12 > 100 µM | NCI-H460 19.2 µM | OVCAR-3 > 100 µM | OVCAR-4 > 100 µM | RXF 393 > 100 µM | SF-295 57 µM | SF-539 90.4 µM | SNB-19 14.5 µM | SNB-75 25 µM | UACC-62 > 96.8 µM | UO-31 > 100 µM

CCC1(C)NN=c2s/c(=C/c3ccc(OC)cc3)c(=O)n2N1 (configuration not stated)
inactive: 786-0 > 100 µM | A549 > 100 µM | ACHN > 100 µM | DLD-1 > 100 µM | HT-29 > 100 µM | IGROV-1 > 100 µM | K562 > 100 µM | KM12 > 100 µM | NCI-H460 > 100 µM | OVCAR-3 80.4 µM | OVCAR-4 35.7 µM | RXF 393 49.4 µM | SF-295 > 100 µM | SF-539 90.6 µM | SNB-19 > 100 µM | SNB-75 38.2 µM | UACC-62 > 100 µM | UO-31 > 100 µM

CNC(=O)OCc1nc(SC)n(C)c1CO
inactive: A549 > 100 µM | DLD-1 > 100 µM | HT-29 > 100 µM | IGROV-1 > 100 µM | K562 > 100 µM | KM12 > 100 µM | NCI-H460 > 100 µM | OVCAR-3 > 100 µM | OVCAR-4 > 100 µM | RXF 393 > 100 µM | SF-295 > 100 µM | SF-539 > 100 µM | SNB-19 > 100 µM | SNB-75 > 100 µM | UACC-62 > 100 µM | UO-31 > 100 µM

O=C(N/N=C/c1cc(-c2ccccc2Cl)c(-c2ccccc2Cl)o1)c1ccncc1
inactive: 786-0 > 100 µM | A549 > 100 µM | ACHN > 100 µM | DLD-1 > 100 µM | HT-29 80.5 µM | IGROV-1 > 100 µM | K562 > 10 µM | OVCAR-3 43.9 µM | OVCAR-4 > 100 µM | RXF 393 > 100 µM | SF-295 > 100 µM | SF-539 > 100 µM | SNB-19 > 100 µM | SNB-75 81.7 µM | UACC-62 > 100 µM

Cc1c(-c2cc3n(n2)C(c2cccs2)C(C#N)=C(c2ccccc2)N3)c(=O)n(-c2ccccc2)n1C (configuration not stated)
inactive: A549 > 100 µM | DLD-1 > 100 µM | HT-29 43.7 µM | IGROV-1 87.7 µM | K562 > 100 µM | KM12 94.2 µM | NCI-H460 76.9 µM | OVCAR-3 > 100 µM | OVCAR-4 > 87.9 µM | RXF 393 37.4 µM | SF-295 > 74.3 µM | SF-539 > 100 µM | SNB-19 > 100 µM | SNB-75 > 55.1 µM | UACC-62 > 100 µM | UO-31 77.4 µM

Nc1nncc2c1ccn2C1OC(CO)C(O)C1O (configuration not stated)
inactive: A549 > 100 µM | ACHN > 100 µM | DLD-1 > 100 µM | HT-29 > 100 µM | IGROV-1 > 100 µM | K562 > 100 µM | KM12 > 100 µM | NCI-H460 > 100 µM | OVCAR-3 > 100 µM | OVCAR-4 > 100 µM | RXF 393 > 100 µM | SF-295 > 100 µM | SF-539 > 100 µM | SNB-19 > 100 µM | SNB-75 > 100 µM | UACC-62 > 100 µM | UO-31 > 100 µM

N=C(N)c1csc([C@@H]2O[C@H](CO)[C@@H](O)[C@H]2O)n1
inactive: A549 > 100 µM | ACHN > 100 µM | DLD-1 > 100 µM | IGROV-1 > 100 µM | K562 > 100 µM | KM12 > 100 µM | NCI-H460 > 100 µM | OVCAR-4 > 100 µM | RXF 393 > 100 µM | SF-295 > 100 µM | SF-539 > 100 µM | SNB-19 > 100 µM | SNB-75 80.9 µM | UO-31 > 100 µM

COc1c(C(=O)/C(=N/Nc2ccccc2)C(C)=O)c(O)c(OC)c2occc12
inactive: 786-0 > 100 µM | A549 52.6 µM | ACHN 50.4 µM | DU-145 > 100 µM | HT-29 37.3 µM | IGROV-1 67.9 µM | K562 53.5 µM | KM12 27.7 µM | MDA-N 32.1 µM | NCI-H460 38.8 µM | OVCAR-3 67.9 µM | OVCAR-4 > 100 µM | RXF 393 13.7 µM | SF-295 48.9 µM | SF-539 > 100 µM | SNB-19 36.1 µM | SNB-75 19.8 µM | UACC-62 20.5 µM | UO-31 17.2 µM

CN(C)CCNC(=O)c1cccc2c1Nc1ccccc1S2
inactive: A549 14.7 µM | DLD-1 15.6 µM | HT-29 11.7 µM | IGROV-1 11.3 µM | K562 14.9 µM | KM12 12.7 µM | NCI-H460 11.2 µM | OVCAR-3 14.5 µM | OVCAR-4 13.4 µM | RXF 393 9.35 µM | SF-295 14.5 µM | SF-539 15.2 µM | SNB-19 9.75 µM | SNB-75 6.81 µM | UACC-62 14.6 µM | UO-31 10.1 µM

C=CNC(=S)n1nc(-c2ccccc2NC(=O)C(F)(F)F)c(=O)n(C(=S)NC=C)c1=S
inactive: ACHN 24.4 µM | DLD-1 16.7 µM | HT-29 18.6 µM | IGROV-1 54 µM | K562 18.1 µM | KM12 29.3 µM | NCI-H460 15.1 µM | OVCAR-3 13.3 µM | OVCAR-4 3.58 µM | RXF 393 73.6 µM | SF-295 19.2 µM | SNB-19 28.6 µM | SNB-75 26 µM | UACC-62 45.8 µM | UO-31 13.9 µM

CC1=NN(C(=O)c2ccccc2)C(=O)C1/N=N/c1ccccc1C(=O)O (configuration not stated)
inactive: A549 3.77 µM | DLD-1 6.89 µM | HT-29 52.1 µM | IGROV-1 4.14 µM | K562 2.54 µM | KM12 7.8 µM | NCI-H460 3.67 µM | OVCAR-3 4.71 µM | OVCAR-4 5.62 µM | RXF 393 2.47 µM | SF-295 4.1 µM | SF-539 3.78 µM | SNB-19 5.75 µM | SNB-75 1.8 µM | UACC-62 3.1 µM | UO-31 3.75 µM

Clc1ccc(COc2ccccc2/C=N/c2c(-c3ccco3)nc3ccccn23)c(Cl)c1
inactive: 786-0 28.2 µM | A549 > 100 µM | ACHN > 100 µM | DU-145 25.8 µM | HT-29 31.9 µM | IGROV-1 25.2 µM | K562 28.4 µM | KM12 36.8 µM | MDA-N 23 µM | NCI-H460 71 µM | OVCAR-3 37.8 µM | OVCAR-4 24.9 µM | RXF 393 20.9 µM | SF-295 39.9 µM | SF-539 21.1 µM | SNB-19 44.1 µM | SNB-75 23.4 µM | UACC-62 33.3 µM | UO-31 39.3 µM
